Several values for one entry are separate records, joined by “and”; a condition that tells them apart may be missing. Equal entries are not always repeated.

As usually defined, the Ki is the dissociation constant of the complex between target and ligand, obtained from inhibition or displacement. Lower therefore signals a stronger hold on the target.

The subject of test [1] is castrated male rats (prostate, seminal vesicles, levator ani muscle). In words: Androgenic and anabolic activity of compounds 1 and 2 in castrated rat model (organ weights). Type of test: in vivo, Sprague-Dawley rats. Particulars: 14 days; for Seminal Vesicles weight: intact 101 ± 26.8, castrated 8.1 ± 1.8; for Levator Ani Muscle weight: intact 102 ± 8.1, castrated 40.9 ± 9.4; for Prostate weight: intact 100 ± 14.3, castrated 6.2 ± 2.5. The source says:
Intact Controls (not castrated, untreated) and Castrated Controls (castrated, untreated) were used as the control groups.

Test [2] addresses T1, androgen receptor (Rattus norvegicus, UniProt P15207).
T1 construct: from tissue; host or cells: Rat ventral prostate cytosol
T1 sequence (P15207 1-902): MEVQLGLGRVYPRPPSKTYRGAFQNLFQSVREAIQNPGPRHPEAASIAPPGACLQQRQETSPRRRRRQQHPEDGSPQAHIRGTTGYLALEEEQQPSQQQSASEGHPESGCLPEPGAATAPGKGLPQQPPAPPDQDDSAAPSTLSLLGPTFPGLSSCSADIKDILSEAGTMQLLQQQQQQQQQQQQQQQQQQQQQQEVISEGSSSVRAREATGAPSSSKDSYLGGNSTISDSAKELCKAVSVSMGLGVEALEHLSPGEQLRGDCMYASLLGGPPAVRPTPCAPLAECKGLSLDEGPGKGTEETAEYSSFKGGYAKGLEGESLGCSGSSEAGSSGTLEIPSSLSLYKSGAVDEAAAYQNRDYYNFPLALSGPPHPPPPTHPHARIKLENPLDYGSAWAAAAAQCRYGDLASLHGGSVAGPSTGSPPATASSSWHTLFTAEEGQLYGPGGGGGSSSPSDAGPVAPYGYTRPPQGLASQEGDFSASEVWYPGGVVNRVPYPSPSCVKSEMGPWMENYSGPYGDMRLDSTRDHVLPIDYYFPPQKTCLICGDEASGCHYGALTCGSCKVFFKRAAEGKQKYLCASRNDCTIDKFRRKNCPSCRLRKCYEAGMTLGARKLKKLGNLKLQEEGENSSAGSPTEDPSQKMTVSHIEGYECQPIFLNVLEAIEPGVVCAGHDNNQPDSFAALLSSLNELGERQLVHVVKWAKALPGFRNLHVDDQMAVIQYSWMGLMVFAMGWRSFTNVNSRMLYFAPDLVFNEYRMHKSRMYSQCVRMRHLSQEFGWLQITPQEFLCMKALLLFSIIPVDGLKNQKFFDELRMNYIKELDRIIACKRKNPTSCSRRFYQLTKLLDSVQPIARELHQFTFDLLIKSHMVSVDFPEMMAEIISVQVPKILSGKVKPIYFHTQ
In words: Androgen receptor binding affinities. The settings on record: for RBA: relative binding affinity, androgen receptor.

The subject of test [3] is castrated male rats (ventral prostate, seminal vesicles, levator ani muscle). The test is described as follows: Androgenic and anabolic activity of compound 7 in castrated male rats (organ weights, dose response). Type of test: in vivo, SD rats. Particulars: 14 days. As to the method:
(§1) Forty-five male SD rats, weighing approximately 200 g, were randomly divided into nine groups with five rats per group. One day before treatment, groups 1 through 8 were castrated via a scrotal incision under anesthesia. Group 9 served as an intact vehicle control. Compound 7 was dissolved in a vehicle containing DMSO (5%, v/v) in PEG 300. Groups 1 through 7 received daily subcutaneous injections of compound 7 at a dose rate of 0.05, 0.1, 0.3, 0.5, 0.75, 1, and 3 mg/day, respectively. Groups 8 and 9 received vehicle. […] This dose rate was chosen based on the results from the aforementioned study in castrated rats. Rats were sacrificed after 14 days treatment. Serum samples were collected and stored at −80° C. The ventral prostate, seminal vesicles, and levator ani muscle were removed, cleared of extraneous tissue, and weighed. All organ weights were normalized to body weight and compared. The weights of the prostate and seminal vesicles were used to evaluate androgenic activity, while the levator ani muscle weight was used as a measurement of anabolic activity.

The test system of test [4] is serum testosterone. The test is described as follows: Serum testosterone concentrations in intact male rats (EIA). The settings on record: 0.5 mg/day, 14 days, individual animals (n=5/group), detection limit 0.04 ng/mL, intact rats 4.47±1.66. The format is in vivo. The method, then:
as §1

Test [5] concerns intact male rats (ventral prostate, seminal vesicles, levator ani muscle). The test is described as follows: Pharmacologic activity of TP and compound 7 in intact male rats (organ weights). The format is in vivo. The settings on record: 0.5 mg/day, 14 days. As to the method: as §1
The test system of test [6] is LH and FSH levels. In words: Serum LH and FSH levels in castrated rats treated with compound 7 (RIA). The format is in vivo, SD rats. The method, then:
as §1

The mark [7] stands for this setting: daily s.c., nonlinear regression of dose-response.

As to `C[C@](O)(COc1ccc(F)c(F)c1)C(=O)Nc1ccc([N+](=O)[O-])c(C(F)(F)F)c1` [Compound 1], the “levator ani muscle weight compared with intact animals” value in test [1] (1 mg/d) is listed as “maintain the levator ani muscle weight of castrated animals in the same level as that of intact animals”. In test [1] (1 mg/day via osmotic pump), the “Seminal Vesicles weight” value turned out to be 30.9 ± 5.7 and the “Levator Ani Muscle weight” value is recorded as 122.5 ± 10.4. This compound also had a Prostate weight in test [1] (1 mg/day via osmotic pump, normalized to body weight) of 40.3 ± 10.0. In test [1] (1 mg/day, daily injection), the Prostate weight turned out to be 33.1 ± 8.5, the “Seminal Vesicles weight” value worked out at 23.6 ± 8.8 and the “Levator Ani Muscle weight” value came out at 112.8 ± 9.4. For the same compound, the RBA in test [2] was 17.6%.

For the compound `C[C@](O)(COc1c(F)c(F)c(F)c(F)c1F)C(=O)Nc1ccc([N+](=O)[O-])c(C(F)(F)F)c1` [Compound 2], in test [1] (1 mg/day, daily injection), the Prostate weight was found to be 7.2 ± 1.4, the “Seminal Vesicles weight” value turned out to be 7.2 ± 0.9 and the “Levator Ani Muscle weight” value was found to be 55.83 ± 2.84. The compound also showed an RBA in test [2] of 13.3%.

In test [2], `C[C@](O)(COc1ccc(F)c(F)c1F)C(=O)Nc1ccc([N+](=O)[O-])c(C(F)(F)F)c1` [Compound 3] displayed a Ki of 11.3 ± 1.1 nM and an RBA of 3.1%.

In test [2], `C[C@](O)(COc1ccc(F)cc1F)C(=O)Nc1ccc([N+](=O)[O-])c(C(F)(F)F)c1` [Compound 5] had a Ki of 3.2 ± 0.3 nM and an RBA of 10.9%.

With `C[C@](O)(COc1cc(F)cc(F)c1F)C(=O)Nc1ccc([N+](=O)[O-])c(C(F)(F)F)c1` [Compound 6], in test [2], the affinity corresponds to a Ki of 9.1 ± 0.6 nM and the RBA was found to be 3.4%.

Turning to `C[C@](O)(COc1ccc(Cl)c(F)c1)C(=O)Nc1ccc([N+](=O)[O-])c(C(F)(F)F)c1` [Compound 7], the “organ weights (ventral prostate, seminal vesicles, levator ani muscle) restored relative to intact controls” value in test [3] (3 mg/day s.c.) is recorded as “up to 130%”. In test [3] (setting [7]), the “ED50 in levator ani muscle” value was found to be 0.17 ± 0.04 mg/day, the ED50 in prostate stood at 0.77 ± 0.06 mg/day and the “ED50 in seminal vesicle” value turned out to be 0.88 ± 0.14 mg/day. Moreover, the serum testosterone concentration in test [4] was < 0.04 ng/mL and 0.11 ng/mL and 0.46 ng/mL. In test [5], the “effect on levator ani muscle weight” value is recorded as “maintained levator ani muscle weight”; the “effect on size of prostate and seminal vesicles” value is “reduced the size of the prostate and seminal vesicles”. In test [2], this compound yielded a Ki of 4.9 ± 0.3 nM and an RBA of 9.1%. In addition, in test [6], the “lowest dose reversing FSH levels back to physiologic levels” value was 0.5 mg/day and the “lowest dose reversing LH levels back to physiologic levels” value came out at 0.3 mg/day. Further, the FSH in test [6] (0.1 mg/day, intact control 11.2 ± 2.0, castrated control 63.4 ± 5.0) was 53.0 ± 5.1 ^I ng/mL. In test [6] (0.1 mg/day, intact control <0.2, castrated control 8.4 ± 2.5), the LH is on record as 3.6 ± 0.8 ^I ng/mL. Also, in test [6] (0.3 mg/day), the FSH was 26.6 ± 8.9 ^I ng/mL and the LH is reported as <0.2 ^C ng/mL. In test [6] (0.5 mg/day), the FSH is reported as 12.4 ± 1.1 ^C ng/mL and the LH is reported as <0.2 ^C ng/mL. For the same compound, in test [6] (0.75 mg/day), the FSH is on record as 12.8 ± 1.6 ^C ng/mL and the LH is on record as <0.2 ^C ng/mL.

In test [2], `C[C@](O)(COc1ccc(F)c(Cl)c1)C(=O)Nc1ccc([N+](=O)[O-])c(C(F)(F)F)c1` [Compound 8] came in with a Ki of 10.3 ± 2 nM and an RBA of 4.3%.

In test [2], `C[C@](O)(COc1ccc(Cl)c(Cl)c1)C(=O)Nc1ccc([N+](=O)[O-])c(C(F)(F)F)c1` [Compound 9] came in with a Ki of 1 ± 0.09 nM and an RBA of 20.2%.

As for `C[C@](O)(COc1ccccc1F)C(=O)Nc1ccc([N+](=O)[O-])c(C(F)(F)F)c1` [Compound 10], in test [2], the Ki is 3.4 ± 0.34 nM and the RBA stood at 5.9%.

Compound `C[C@](O)(COc1c(F)cc(F)cc1F)C(=O)Nc1ccc([N+](=O)[O-])c(C(F)(F)F)c1` [Compound 11] displayed a Ki in test [2] of 10.3 ± 2 nM.

Turning to `CCC(=O)O[C@H]1CC[C@H]2[C@@H]3CCC4=CC(=O)CC[C@]4(C)[C@H]3CC[C@]12C` [TP, testosterone propionate, reference compound], the “effect on growth of prostate, seminal vesicles and levator ani muscle” value in test [5] is on record as “stimulated growth in all three organs”.
